ChEMBL document CHEMBL3860037, “Design, synthesis and biological characterization of a new class of osteogenic (1H)-quinolone derivatives” (Eur J Med Chem, 2016)
pEC50: −log10 of the molar value. Active and inactive are the calls of the source. No cut-off for these calls is given here.

Tests used:
[1] = target: Protein smoothened (Mus musculus) (UniProt P56726); assay: Activity at Smo in mouse C3H10T1/2 cells assessed as induction of cell differentiation into osteoblast at 10 uM incubated for 6 days by alkaline phosphatase assay relative to GSA-10; assay type: cell-based; details: C3H 10T1/2
[2] = target: T1, Coelenterazine h 2-monooxygenase (Renilla reniformis) (UniProt P27652); assay: Induction of Renilla reniformis luciferase activity at 10 uM relative to control
T1 sequence (whole entry): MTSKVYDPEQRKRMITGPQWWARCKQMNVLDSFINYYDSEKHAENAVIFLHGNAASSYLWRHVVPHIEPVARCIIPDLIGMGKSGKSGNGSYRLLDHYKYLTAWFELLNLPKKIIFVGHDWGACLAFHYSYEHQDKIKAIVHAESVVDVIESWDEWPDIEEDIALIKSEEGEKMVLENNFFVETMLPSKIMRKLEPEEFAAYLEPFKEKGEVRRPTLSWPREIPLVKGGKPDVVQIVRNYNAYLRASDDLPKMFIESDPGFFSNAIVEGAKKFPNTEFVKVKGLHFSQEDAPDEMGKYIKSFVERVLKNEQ

[3] = target: Protein smoothened (Mus musculus) (UniProt P56726); assay: Agonist activity at Smo in mouse C3H10T1/2 cells assessed as effect on Gli3 expression at 1 uM after 48 hrs by RT-PCR method relative to vehicle-treated control; assay type: cell-based; details: C3H 10T1/2
[4] = target: Protein smoothened (Mus musculus) (UniProt P56726); assay: Agonist activity at Smo in mouse C3H10T1/2 cells assessed as effect on Gli2 expression at 1 uM after 48 hrs by RT-PCR method relative to vehicle-treated control; assay type: cell-based; details: C3H 10T1/2
[5] = target: Protein smoothened (Rattus norvegicus) (UniProt P97698); assay: Agonist activity at Smo in cerebellar granule cell precursors isolated from rat at postnatal day 8 assessed as stimulation of proliferation by [3H]-thymidine incorporation assay
[6] = target: Protein smoothened (Mus musculus) (UniProt P56726); assay: Agonist activity at Smo in mouse NIH/3T3 cells transfected with Gli-dependent firefly luciferase reporter assessed as stimulation of Gli transcription factor incubated for 40 hrs; assay type: cell-based
[7] = target: Protein smoothened (Mus musculus) (UniProt P56726); assay: Induction of Smo translocation to primary cilium in mouse NIH/3T3 cells at 1 uM after overnight incubation by DAPI staining-based immunofluorescence assay relative to control; assay type: cell-based
[8] = target: Protein smoothened (Mus musculus) (UniProt P56726); assay: Agonist activity at Smo in mouse C3H10T1/2 cells assessed as induction of cell differentiation into osteoblast incubated for 6 days by alkaline phosphatase assay; assay type: cell-based; details: C3H 10T1/2
[9] = target: Protein smoothened (Mus musculus) (UniProt P56726); assay: Agonist activity at Smo in mouse C3H10T1/2 cells assessed as induction of cell differentiation into osteoblast at 10 uM incubated for 6 days by alkaline phosphatase assay relative to GSA-10; assay type: cell-based; details: C3H 10T1/2
[10] = target: Protein smoothened (Mus musculus) (UniProt P56726); assay: Agonist activity at Smo in mouse C3H10T1/2 cells assessed as effect on Ptc1 expression at 1 uM after 48 hrs by RT-PCR method relative to vehicle-treated control; assay type: cell-based; details: C3H 10T1/2
Protein smoothened = Protein smoothened (Mus musculus, UniProt P56726); assay: Agonist activity at Smo in mouse NIH/3T3 cells transfected with Gli-dependent firefly luciferase reporter assessed as stimulation of Gli transcription factor; assay type: cell-based
[11] = target: Protein smoothened (Mus musculus) (UniProt P56726); assay: Agonist activity at Smo in mouse C3H10T1/2 cells assessed as effect on Smo expression at 1 uM after 48 hrs by RT-PCR method relative to vehicle-treated control; assay type: cell-based; details: C3H 10T1/2
[12] = target: Protein smoothened (Mus musculus) (UniProt P56726); assay: Agonist activity at Smo in mouse C3H10T1/2 cells assessed as effect on Gli1 expression at 1 uM after 48 hrs by RT-PCR method relative to vehicle-treated control; assay type: cell-based; details: C3H 10T1/2
[13] = target: Protein smoothened (Mus musculus) (UniProt P56726); assay: Agonist activity at Smo in mouse C3H10T1/2 cells assessed as effect on Ptc1 expression at 10 uM after 48 hrs by RT-PCR method relative to vehicle-treated control; assay type: cell-based; details: C3H 10T1/2
[14] = target: Protein smoothened (Mus musculus) (UniProt P56726); assay: Activity at Smo in mouse C3H10T1/2 cells assessed as induction of cell differentiation into osteoblast at 0.3 uM in presence of adenylate cyclase activator forskolin incubated for 6 days by alkaline phosphatase assay; assay type: cell-based; details: C3H 10T1/2
[15] = target: Protein smoothened (Mus musculus) (UniProt P56726); assay: Activity at Smo in mouse C3H10T1/2 cells assessed as induction of cell differentiation into osteoblast at 0.3 uM in presence of phosphodiesterase inhibitor IBMX incubated for 6 days by alkaline phosphatase assay; assay type: cell-based; details: C3H 10T1/2
[16] = target: Protein smoothened (Mus musculus) (UniProt P56726); assay: Activity at Smo in mouse C3H10T1/2 cells assessed as induction of cell differentiation into osteoblast incubated for 6 days by alkaline phosphatase assay; assay type: cell-based; details: C3H 10T1/2
[17] = target: Protein smoothened (Mus musculus) (UniProt P56726); assay: Agonist activity at Smo in mouse C3H10T1/2 cells assessed as effect on Gli2 expression at 10 uM after 48 hrs by RT-PCR method relative to vehicle-treated control; assay type: cell-based; details: C3H 10T1/2
[18] = target: Protein smoothened (Mus musculus) (UniProt P56726); assay: Antagonist activity at Smo in mouse NIH/3T3 cells transfected with Gli-dependent firefly luciferase reporter assessed as inhibition of SAG-induced maximal stimulation of Gli transcription factor at 1 uM incubated for 40 hrs relative to control; assay type: cell-based
[19] = target: Protein smoothened (Mus musculus) (UniProt P56726); assay: Agonist activity at Smo in mouse C3H10T1/2 cells assessed as effect on Gli1 expression at 10 uM after 48 hrs by RT-PCR method relative to vehicle-treated control; assay type: cell-based; details: C3H 10T1/2
[20] = target: Protein smoothened (Mus musculus) (UniProt P56726); assay: Agonist activity at Smo in mouse C3H10T1/2 cells assessed as effect on Gli3 expression at 10 uM after 48 hrs by RT-PCR method relative to vehicle-treated control; assay type: cell-based; details: C3H 10T1/2
[21] = target: Protein smoothened (Mus musculus) (UniProt P56726); assay: Agonist activity at Smo in mouse C3H10T1/2 cells assessed as effect on Smo expression at 10 uM after 48 hrs by RT-PCR method relative to vehicle-treated control; assay type: cell-based; details: C3H 10T1/2
[22] = target: Protein smoothened (Mus musculus) (UniProt P56726); assay: Potency index, ratio of GSA-10 EC50 to compound EC50 for activity at Smo in mouse C3H10T1/2 cells assessed as induction of cell differentiation into osteoblast; assay type: cell-based; details: C3H 10T1/2
[23] = target: Protein smoothened (Mus musculus) (UniProt P56726); assay: Activity at Smo in mouse C3H10T1/2 cells assessed as induction of cell differentiation into osteoblast at 1 uM in presence of phosphodiesterase inhibitor IBMX incubated for 6 days by alkaline phosphatase assay; assay type: cell-based; details: C3H 10T1/2
[24] = target: Protein smoothened (Mus musculus) (UniProt P56726); assay: Activity at Smo in mouse C3H10T1/2 cells assessed as induction of cell differentiation into osteoblast at 1 uM in presence of adenylate cyclase activator forskolin incubated for 6 days by alkaline phosphatase assay; assay type: cell-based; details: C3H 10T1/2

Chain of Protein smoothened (Mus musculus) (P56726 whole entry): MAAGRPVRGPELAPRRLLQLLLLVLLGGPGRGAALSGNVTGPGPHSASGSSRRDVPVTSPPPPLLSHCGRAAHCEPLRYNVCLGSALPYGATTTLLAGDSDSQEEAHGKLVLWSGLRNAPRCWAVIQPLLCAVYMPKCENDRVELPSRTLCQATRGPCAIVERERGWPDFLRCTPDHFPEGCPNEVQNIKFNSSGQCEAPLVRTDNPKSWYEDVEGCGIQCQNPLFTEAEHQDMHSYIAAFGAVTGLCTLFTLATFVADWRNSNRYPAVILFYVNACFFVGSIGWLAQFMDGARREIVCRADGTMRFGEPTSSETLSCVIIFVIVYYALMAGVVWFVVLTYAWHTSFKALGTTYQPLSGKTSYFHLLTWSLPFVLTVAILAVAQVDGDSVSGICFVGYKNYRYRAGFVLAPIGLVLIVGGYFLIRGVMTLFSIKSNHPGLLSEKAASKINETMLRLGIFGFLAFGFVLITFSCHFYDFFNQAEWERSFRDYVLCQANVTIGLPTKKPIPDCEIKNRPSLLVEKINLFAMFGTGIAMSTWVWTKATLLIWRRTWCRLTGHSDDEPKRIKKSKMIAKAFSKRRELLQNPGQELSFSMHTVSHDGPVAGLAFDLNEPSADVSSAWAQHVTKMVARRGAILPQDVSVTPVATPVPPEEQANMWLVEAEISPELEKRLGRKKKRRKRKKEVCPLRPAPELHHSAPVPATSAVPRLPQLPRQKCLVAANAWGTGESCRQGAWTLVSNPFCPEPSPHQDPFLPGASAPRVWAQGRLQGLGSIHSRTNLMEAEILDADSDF
Chain of Protein smoothened (Rattus norvegicus) (P97698 whole entry): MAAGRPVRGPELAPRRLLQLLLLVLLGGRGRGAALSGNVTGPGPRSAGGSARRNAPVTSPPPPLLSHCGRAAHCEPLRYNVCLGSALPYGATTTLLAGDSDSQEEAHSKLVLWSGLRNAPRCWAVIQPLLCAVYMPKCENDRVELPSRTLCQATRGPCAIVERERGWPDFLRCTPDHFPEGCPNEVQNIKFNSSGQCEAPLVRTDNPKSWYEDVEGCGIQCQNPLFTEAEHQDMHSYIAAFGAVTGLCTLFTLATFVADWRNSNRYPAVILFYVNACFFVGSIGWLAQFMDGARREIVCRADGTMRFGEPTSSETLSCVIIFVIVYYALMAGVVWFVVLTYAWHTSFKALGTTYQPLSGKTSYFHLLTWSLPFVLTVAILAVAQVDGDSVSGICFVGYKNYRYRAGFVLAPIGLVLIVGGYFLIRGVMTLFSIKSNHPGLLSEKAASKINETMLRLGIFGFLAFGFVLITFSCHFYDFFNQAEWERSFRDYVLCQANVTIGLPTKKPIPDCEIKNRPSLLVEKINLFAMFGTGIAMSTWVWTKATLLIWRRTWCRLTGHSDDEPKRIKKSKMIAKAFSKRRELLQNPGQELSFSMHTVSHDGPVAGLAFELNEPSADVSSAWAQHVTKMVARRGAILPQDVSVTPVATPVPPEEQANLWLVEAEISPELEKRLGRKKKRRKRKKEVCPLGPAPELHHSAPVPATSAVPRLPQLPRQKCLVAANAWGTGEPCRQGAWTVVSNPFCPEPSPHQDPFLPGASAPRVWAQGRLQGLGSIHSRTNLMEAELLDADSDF
Chain of Protein smoothened (P56726 whole entry): as the sequence (P56726 whole entry) above

CCCCCn1c(=O)c(C(=O)Nc2ccc([N+](=O)[O-])cc2O)c(O)c2ccccc21
max activation [1]: 3%

CN[C@H]1CC[C@H](N(Cc2cccc(-c3ccncc3)c2)C(=O)c2sc3ccccc3c2Cl)CC1
Activity [2]: < 20%
fold change (FC) [3]: 0.72
fold change (FC) [4]: 1.24
Activity [5]: Active
Activity [6]: Active
Activity [7]: > 60%
Activity [8]: Dose-dependent effect
max activation [9]: 75%
fold change (FC) [10]: 5.32
pEC50 (Protein smoothened): 7.52
fold change (FC) [11]: 0.9
fold change (FC) [12]: 7.83

CCCCCCn1c(=O)c(C(=O)Nc2nc(CC(=O)OCC)cs2)c(O)c2ccccc21
max activation [1]: 3%

CCCCCn1c(=O)c(C(=O)Nc2ccc([N+](=O)[O-])cc2)c(O)c2ccccc21
max activation [1]: 5%

CCCCCn1c(=O)c(C(=O)Nc2ccc(C(=O)OCC)cc2)c(O)c2ccccc21
max activation [1]: 76%

CCCCCCn1c(=O)c(C(=O)Nc2cccc(C(=O)OCC)c2)c(O)c2ccccc21
max activation [1]: 1.7%

CCCCCCn1c(=O)c(C(=O)Nc2ccc(C(=O)OCC)cc2)c(O)c2ccccc21
max activation [1]: 62%

CCCCCCn1c(=O)c(C(=O)Nc2ccc(C(=O)OC(C)(C)C)cc2)c(O)c2ccccc21
max activation [1]: 69%

CCCOC(=O)c1ccc(NC(=O)c2c(O)c3cc(C)ccc3n(CCC)c2=O)cc1
max activation [1]: 85%

CCCCCn1c(=O)c(C(=O)Nc2ccc(C(=O)OCCC)cc2)c(O)c2ccccc21
max activation [1]: 138%

CCCCCCn1c(=O)c(C(=O)Nc2ccc(C(=O)O)cc2)c(O)c2ccccc21
Activity [2]: < 20%
max activation [1]: 137%
fold change (FC) [13]: 0.26
Activity [14]: Active
Activity [15]: Active
Activity [16]: Dose-dependent effect
fold change (FC) [17]: 1.63
inhibition [18]: 26%
fold change (FC) [19]: 0.05
fold change (FC) [20]: 0.98
fold change (FC) [21]: 0.92
Ratio EC50 [22]: 2

CCOC(=O)c1ccc(NC(=O)c2c(O)c3ccccc3n(Cc3ccccc3)c2=O)cc1
max activation [1]: 4%

CCCCCCn1c(=O)c(C(=O)Nc2ncc([N+](=O)[O-])s2)c(O)c2ccccc21
max activation [1]: 3%

c1ccc2c(Oc3nc(Nc4ccc(N5CCOCC5)cc4)c4ncn(C5CCCCC5)c4n3)cccc2c1
max activation [1]: 78%

CCCOC(=O)c1ccc(NC(=O)c2c(O)c3ccccc3n(Cc3ccccc3)c2=O)cc1
max activation [1]: 7%

CCCCCCn1c(=O)c(C(=O)Nc2ccc(OCC)cc2)c(O)c2ccccc21
max activation [1]: 1%

CCCCCCn1c(=O)c(C(=O)Nc2ccc(C(=O)NCCC)cc2)c(O)c2ccccc21
max activation [1]: 1.6%

CCCOC(=O)c1ccc(NC(=O)c2c(O)c3cc(OC)c(OC)cc3n(CCC)c2=O)cc1
Activity [2]: < 20%
max activation [1]: 138%
fold change (FC) [13]: 0.27
Activity [14]: Active
Activity [15]: Active
Activity [16]: Dose-dependent effect
fold change (FC) [17]: 1.49
inhibition [18]: 54%
fold change (FC) [19]: 0.04
fold change (FC) [20]: 0.86
fold change (FC) [21]: 0.81
Ratio EC50 [22]: 3

CCCOC(=O)c1ccc(NC(=O)c2c(O)c3cc(Cl)ccc3n(CCC)c2=O)cc1
max activation [1]: 41%

CCCCCCn1c(=O)c(C(=O)Nc2ccc(C(=O)OCCCC)cc2)c(O)c2ccccc21
max activation [1]: 88%

CCCCn1c(=O)c(C(=O)Nc2ccc(C(=O)OCCC)cc2)c(O)c2ccccc21
max activation [1]: 135%

CCCCCCn1c(=O)c(C(=O)Nc2ccc(C(=O)NCCCC)cc2)c(O)c2ccccc21
max activation [1]: 92%

CCCCCCn1c(=O)c(C(=O)Nc2cc(C)cc(C(=O)OCCC)c2)c(O)c2ccccc21
max activation [1]: 3%

CCCCCCn1c(=O)c(C(=O)Nc2cccc(C(=O)OCCC)c2C(F)(F)F)c(O)c2ccccc21
max activation [1]: 1.4%

C=CCn1c(=O)c(C(=O)Nc2ccc(C(=O)OCCC)cc2)c(O)c2ccccc21
max activation [1]: 22%

CCCCCCn1c(=O)c(C(=O)Nc2cccc(C(=O)OCCC)c2)c(O)c2ccccc21
max activation [1]: 2%

CCCOC(=O)c1ccc(NC(=O)c2c(O)c3cc(F)ccc3n(CCC)c2=O)cc1
max activation [1]: 98%

CCCCCn1c(=O)c(C(=O)Nc2ccc(C(=O)OCCCC)cc2)c(O)c2ccccc21
max activation [1]: 123%

CCCCCCn1c(=O)c(C(=O)Nc2ccc(C(=O)OC(C)C)cc2)c(O)c2ccccc21
max activation [1]: 33%

CCCOC(=O)c1ccc(NC(=O)c2c(O)c3ccccc3n(C)c2=O)cc1
max activation [1]: 1%

CCCCCCn1c(=O)c(C(=O)Nc2ccc(C(=O)OCCC)cc2)c(O)c2ccccc21
Activity [23]: Active
Activity [24]: Active
Activity [2]: < 20%
fold change (FC) [13]: 0.33
Activity [16]: Dose-dependent effect
fold change (FC) [17]: 1.35
inhibition [18]: 31%
fold change (FC) [19]: 0.05
fold change (FC) [20]: 0.85
fold change (FC) [21]: 0.8

CCCCCCn1c(=O)c(C(=O)Nc2ccc(C(=O)OCCC)c(Cl)c2)c(O)c2ccccc21
max activation [1]: 11%

CCCOC(=O)c1ccc(NC(=O)c2c(O)c3cccc4c3n(c2=O)CCC4)cc1
max activation [1]: 38%

CCCCCCn1c(=O)c(C(=O)Nc2ccc(C(N)=O)cc2)c(O)c2ccccc21
max activation [1]: 1%

CCCCCCn1c(=O)c(C(=O)Nc2ccc(C(=O)OCc3ccccc3)cc2)c(O)c2ccccc21
max activation [1]: 47%

CCCCCCn1c(=O)c(C(=O)Nc2cccc(C(=O)OC(C)(C)C)c2)c(O)c2ccccc21
max activation [1]: 1.3%

CCCOC(=O)c1ccc(NC(=O)c2c(O)c3ccccc3n(CCC)c2=O)cc1
max activation [1]: 105%

CCCCCc1nc2ccccc2c(=O)n1NC(=O)c1c(O)c2ccccc2n(CC)c1=O
max activation [1]: 5%
